tested on: Aβ42 production; experiment: Quantification of Aβ peptide in culture of neurons from rat fetus brain (Aβ ELISA); assay type: cell-based; settings: Neuron, 72 h; rat primary neuronal culture (cerebral cortex, embryonic day 18 Wistar rats); medium collected three days after addition of the compound; Aβx-42 ELISA; read-out: Aβ42 production reducing effect IC50
Protocol: Quantification of Aβ Peptide in Culture of Neurons from Rat Fetus Brain
(1) Rat Primary Neuronal Culture
Primary neuronal cultures were prepared from the cerebral cortex of embryonic day 18 Wistar rats (Charles River Japan, Yokohama, Japan). Specifically, the embryos were aseptically removed from pregnant rats under ether anesthesia. The brain was isolated from the embryo and immersed in an ice-cold L-15 medium (such as Invitrogen Corp. Cat #11415-064, Carlsbad, Calif., USA, or SIGMA L1518). The cerebral cortex was collected from the isolated brain under a stereoscopic microscope. The cerebral cortex fragments collected were enzymatically treated in an enzyme solution containing 0.25% trypsin (Invitrogen Corp. Cat #15050-065, Carlsbad, Calif., USA) and 0.01% DNase (Sigma D5025, St. Louis, Mo., USA) at 37° C. for 30 minutes to disperse the cells. Here, the enzymatic reaction was stopped by adding inactivated horse serum to the solution. The enzymatically treated solution was centrifuged at 1,500 rpm for five minutes to remove the supernatant. 5 to 10 mL of a medium was added to the resulting cell mass. Neurobasal medium (Invitrogen Corp. Cat #21103-049, Carlsbad, Calif., USA) supplemented with 2% B27 supplement (Invitrogen Corp. Cat #17504-044, Carlsbad, Calif., USA), 25 μM 2-mercaptoethanol (2-ME, WAKO Cat #139-06861, Osaka, Japan), 0.5 mM L-glutamine (Invitrogen Corp. Cat #25030-081, Carlsbad, Calif., USA), and Antibiotics-Antimycotics (Invitrogen Corp. Cat #15240-062, Carlsbad, Calif., USA) was used as the medium (Neurobasal/B27/2-ME). However, the above Neurobasal medium not supplemented with 2-ME (Neurobasal/B27) was used for the assay. The cells were redispersed by mild pipetting of the cell mass to which the medium was added. The cell dispersion was filtered through a 40-μm nylon mesh (Cell Strainer, Cat #35-2340, Becton Dickinson Labware, Franklin Lakes, N.J., USA) to remove the remaining cell mass, and thus a neuronal cell suspension was obtained. The neuronal cell suspension was diluted with the medium and then plated in a volume of 100 μL/well at an initial cell density of 5×10^5 cells/cm^2 in a 96-well polystyrene culture plate pre-coated with poly-L or D-lysine (Falcon Cat #35-3075, Becton Dickinson Labware, Franklin Lakes, N.J., USA coated with poly-L-lysine using the method shown below, or BIOCOAT™ cell environments Poly-D-lysine cell ware 96-well plate, Cat #35-6461, Becton Dickinson Labware, Franklin Lakes, N.J., USA). Poly-L-lysine coating was carried out as follows. 100 μg/mL of a poly-L-lysine (SIGMA P2636, St. Louis, Mo., USA) solution was aseptically prepared with a 0.15 M borate buffer (pH 8.5). […] of the solution was added to the 96-well polystyrene culture plate and incubated at room temperature for one or more hours or at 4° C. overnight or longer. Thereafter, the coated 96-well polystyrene culture plate was washed with sterile water four or more times, and then dried or rinsed with, for example, sterile PBS or medium, and used for cell plating. The plated cells were cultured in the culture plate at 37° C. in 5% CO2-95% air for one day. Then, the total amount of the medium was replaced with a fresh Neurobasal™/B27/2-ME medium, and then the cells were cultured for further three days.
The drug was added to the culture plate on Day 4 of culture as follows. The total amount of the medium was removed from the wells, and 180 μL/well of Neurobasal medium not containing 2-ME and containing 2% B-27 (Neurobasal/B27) was added thereto. A solution of the test compound in dimethyl sulfoxide (hereinafter abbreviated as DMSO) was diluted with Neurobasal/B27 to a concentration 10-fold higher than the final concentration. 20 μL/well of the dilution was added to and sufficiently mixed with the medium. The final DMSO concentration was 1% or less. Only DMSO was added to the control group.
The cells were cultured for three days after addition of the compound, and the total amount of the medium was collected. […]

First: CO[C@@H]1C[C@H]2CSC(N)=N[C@@]2(c2cc(NC(=O)c3ccc(C#N)cn3)ccc2F)C1 (relative stereo) [Example 32, (+)-N-[3-((4aR*,6R*,7aS*)-2-amino-6-methoxy-4a,5,6,7-tetrahydro-4H-cyclopenta[d][1,3]thiazin-7a-yl)-4-fluorophenyl]-5-cyanopyridine-2-carboxamide]
Second: CO[C@H]1CC[C@]2(c3cc(NC(=O)c4ccc(C#N)cn4)ccc3F)N=C(N)SC[C@H]12 (relative stereo) [Example 63, N-[3-((4aS*,5S*,7aS*)-2-amino-5-methoxy-4a,5,6,7-tetrahydro-4H-cyclopenta[d][1,3]thiazin-7a-yl)-4-fluorophenyl]-5-cyanopyridine-2-carboxamide]
The IC50 of the first is 10-fold lower: 1.1 nM for the first, 11 nM for the second. The first is the more potent here.

First: N#Cc1ccc(C(=O)Nc2ccc(F)c([C@]34CCCCC[C@H]3CSC(N)=N4)c2)nc1 (relative stereo) [Example 33, (+)-N-[3-((4aR*,9aS*)-2-amino-4a,5,6,7,8,9-hexahydro-4H-cyclohepta[d][1,3]thiazin-9a-yl)-4-fluorophenyl]-5-cyanopyridine-2-carboxamide]
Second: CO[C@@H]1CC[C@]2(c3cc(NC(=O)c4ccc(C#N)cn4)ccc3F)N=C(N)SC[C@H]12 (relative stereo) [Example 65, N-[3-((4aS*,5R*,7aS*)-2-amino-5-methoxy-4a,5,6,7-tetrahydro-4H-cyclopenta[d][1,3]thiazin-7a-yl)-4-fluorophenyl]-5-cyanopyridine-2-carboxamide]
The IC50 of the first is 3.8-fold lower: 10 nM for the first, 38 nM for the second. The first is the more potent here.

First: CC[C@H]1OC[C@]2(c3cc(NC(=O)c4ccc(C#N)cn4)ccc3F)N=C(N)SC[C@H]12 (relative stereo) [Example 49, N-[3-((4aS*,5R*,7aS*)-2-amino-5-ethyl-4a,5-dihydro-4H-furo[3,4-d][1,3]thiazin-7a-yl)-4-fluorophenyl]-5-cyanopyridine-2-carboxamide]
Second: C[C@H]1OC[C@]2(c3cc(NC(=O)c4ccc(C#N)cn4)ccc3F)N=C(N)SC[C@H]12 (relative stereo) [Example 54, N-[3-((4aS*,5R*,7aS*)-2-amino-5-methyl-4,5-dihydro-4H-furo[3,4-d][1,3]thiazin-7a-yl-4-fluorophenyl]-5-cyanopyridine-2-carboxamide]
The IC50 of the first is 2.1-fold lower: 0.8 nM for the first, 1.7 nM for the second.

`CC[C@H]1OC[C@]2(c3cc(NC(=O)c4cnc(OC(F)F)cn4)ccc3F)N=C(N)SC[C@H]12` (relative stereo) [Example 50, N-[3-((4aS*,5R*,7aS*)-2-amino-5-ethyl-4a,5-dihydro-4H-furo[3,4-d][1,3]thiazin-7a-yl)-4-fluorophenyl]-5-difluoromethoxypyrazine-2-carboxamide] and `C[C@H]1OC[C@]2(c3cc(NC(=O)c4cnc(OC(F)F)cn4)ccc3F)N=C(N)SC[C@H]12` (relative stereo) [Example 55, N-[3-((4aS*,5R*,7aS*)-2-amino-5-methyl-4a,5-dihydro-4H-furo[3,4-d][1,3]thiazin-7a-yl)-4-fluorophenyl]-5-difluoromethoxypyrazine-2-carboxamide] are within 1.5-fold of each other in IC50: 0.9 nM for the first, 1.1 nM for the second.

Compared with `CC[C@H]1OC[C@]2(c3cc(NC(=O)c4ccc(Cl)cn4)ccc3F)N=C(N)SC[C@H]12` (relative stereo) [Example 51, N-[3-((4aS*,5R*,7aS*)-2-amino-5-ethyl-4a,5-dihydro-4H-furo[3,4-d][1,3]thiazin-7a-yl)-4-fluorophenyl]-5-chloropyridine-2-carboxamide], `C[C@H]1OC[C@]2(c3cc(NC(=O)c4ccc(Cl)cn4)ccc3F)N=C(N)SC[C@H]12` (relative stereo) [Example 56, N-[3-((4aS*,5R*,7aS*)-2-amino-5-meth 1-4a,5-dihydro-4H-furo[3,4-d][1,3]thiazin-7a-yl)-4-fluorophenyl]-5-chloropyridine-2-carboxamide] is 1.9-fold higher in IC50: 1.6 nM for the first, 3 nM for the second. The first is the more potent here.

Compared with `CC[C@H]1OC[C@]2(c3cc(NC(=O)c4cnc(OCF)cn4)ccc3F)N=C(N)SC[C@H]12` (relative stereo) [Example 52, N-[3-((4aS*, 5R*,7aS*)-2-amino-5-ethyl-4a,5-dihydro-4H-furo[3,4-d][1,3]thiazin-7a-yl)-4-fluorophenyl]-5-fluoromethoxypyrazine-2-carboxamide], `C[C@H]1OC[C@]2(c3cc(NC(=O)c4cnc(OCF)cn4)ccc3F)N=C(N)SC[C@H]12` (relative stereo) [Example 57, N-[3-((4aS*,5R*,7aS*)-2-amino-5-methyl-4a,5-dihydro-4H-furo[3,4-d][1,3]thiazin-7a-yl)-4-fluorophenyl]-5-fluoromethoxypyrazine-2-carboxamide] is 1.5-fold higher in IC50: 2 nM for the first, 3 nM for the second. The first is the more potent here.

First: CC[C@H]1OC[C@]2(c3cc(NC(=O)c4cnc(C(F)F)cn4)ccc3F)N=C(N)SC[C@H]12 (relative stereo) [Example 53, N-[3-((4aS*,5R*,7aS*)-2-amino-5-ethyl-4a,5-dihydro-4H-furo[3,4-d][1,3]thiazin-7a-yl)-4-fluorophenyl]-5-difluoromethylpyrazine-2-carboxamide]
Second: C[C@H]1OC[C@]2(c3cc(NC(=O)c4cnc(C(F)F)cn4)ccc3F)N=C(N)SC[C@H]12 (relative stereo) [Example 58, N-[3-((4aS*,5R*,7aS*)-2-amino-5-methyl-4a,5-dihydro-4H-furo[3,4-d][1,3]thiazin-7a-yl)-4-fluorophenyl]-5-difluoromethylpyrazine-2-carboxamide]
The IC50 of the first is 3.5-fold lower: 2 nM for the first, 7 nM for the second. The first is the more potent here.

Compared with `C[C@H]1OC[C@]2(c3cc(NC(=O)c4ccc(OC(F)F)cn4)ccc3F)N=C(N)SC[C@H]12` (relative stereo) [Example 59, N-[3-((4aS*,5R*,7aS*)-2-amino-5-methyl-4a,5-dihydro-4H-furo[3,4-d][1,3]thiazin-7a-yl)-4-fluorophenyl]-5-difluoromethoxypyridine-2-carboxamide], `C[C@H]1OC[C@]2(c3cc(NC(=O)c4ccncn4)ccc3F)N=C(N)SC[C@H]12` (relative stereo) [Example 60, N-[3-((4aS*,5R*,7aS*)-2-amino-5-methyl-4a,5-dihydro-4H-furo[3,4-d][1,3]thiazin-7a-yl)-4-fluorophenyl]-pyrimidine-4-carboxamide] is 6-fold higher in IC50: 2 nM for the first, 12 nM for the second.

Compared with `CO[C@H]1CC[C@]2(c3cc(NC(=O)c4cnc(OC(F)F)cn4)ccc3F)N=C(N)SC[C@H]12` (relative stereo) [Example 64, N-[3-((4aS*,5S*,7aS*)-2-amino-5-methoxy-4a,5,6,7-tetrahydro-4H-cyclopenta[d][1,3]thiazin-7a-yl)-4-fluorophenyl]-5-difluoromethoxypyrazine-2-carboxamide], `NC1=N[C@@]2(c3cc(NC(=O)c4cnc(C(F)F)cn4)ccc3F)CCOC[C@H]2CS1` (relative stereo) [Example 79, N-[3-((4aS*,8aS*)-2-amino-4a,5,7,8-tetrahydro-4H-6-oxa-3-thia-1-azanaphthalen-8a-yl)-4-fluorophenyl]-5-difluoromethylpyrazine-2-carboxamide] is 3.5-fold higher in IC50: 8 nM for the first, 28 nM for the second. The first is the more potent here.

Work on `NC1=N[C@@]2(c3cc(NC(=O)c4cnc(OCF)cn4)ccc3F)CCOC[C@H]2CS1` (relative stereo) [Example 80, N-[3-((4aS*,8aS*)-2-amino-4a,5,7,8-tetrahydro-4H-6-oxa-3-thia-1-azanaphthalen-8a-yl)-4-fluorophenyl]-5-fluoromethoxypyrazine-2-carboxamide] yielded an IC50 of 8 nM.

— patent US20100317850A1 (priority 2008, published 2010)
